Series [1] concerns HCV replicon. Nature of the series: Anti-HCV replicon assay (EC50, luciferase). Format: cell-based. The conditions noted are these: Hepatitis C virus, 72 h; human hepatoma Huh-7 cell line harbouring a HCV replicon, 3 days incubation, luciferase luminescence. As for the experimental part:
(§1) The anti-HCV activity of the pyrido[3,2-d]pyrimidine derivatives of this invention was tested in a human hepatoma Huh-7 cell line harbouring a HCV replicon. The assay comprised the following steps:
(§2) Step 1: Compound Preparation and Serial Dilution
(§3) • 1. for water soluble pyrido[3,2-d]pyrimidine derivatives, a volume of 500 μL of solution in cell media (DMEM, 10% FBS, P/S, L-Glutamine) was prepared with a concentration being twice the concentration of the starting final serial dilution concentration. A volume of 150 μL of the solution was added to the pre-specified wells in column 1 of a 96-well cell culture plate (PerkinElmer, white plate, cat. #6005181, for EC50 assay; black plate, cat. #6005182 for CC50 assay). The rest of the plate, columns 2-12, was filled with 100 μL of cell media. The plate was then placed on a Precision 2000 Workstation to start the serial dilution. Compounds were diluted three times each step from column 1 to column 10. Column 11 was used as a blank control (no compound added). • 2. for pyrido[3,2-d]pyrimidine derivatives requiring DMSO to dissolve, serial dilution is performed in 50% DMSO in a 384-well plate. A solution containing a compound at 100-fold concentration of the starting final serial dilution concentration was prepared in 50% DMSO and added to the pre-specified wells in column 1 of a polypropylene 384-well plate. The plate was then placed on a Precision 2000 Workstation to start the serial dilution. After the serial dilution, a volume of 2 μL of the solution was transferred from the 384-well plate to a 96-well cell culture plate containing 100 μL of cell media on a Biomek FX Workstation. The DMSO concentration in the final assay condition was 0.5% after cells are added to the plate and the total volume in each well is brought to 200 μL. Step 2: to each well of the serial dilution plate prepared above, 100 μL of cell media containing 6000 suspended Huh-7 HCV replicon cells was added with a Multidrop workstation. The plates were incubated for 3 days at 37° C. with 5% CO2. Step 3: Detection: • a) for the EC50 assay, the media in a 96-well cell culture plate was aspirated with a Biotek EL405 plate-washer. A volume of 200 μL of a solution containing a 1:1 mixture of cell-lysis buffer (Promega, Luciferase Cell Culture Lysis 5× Reagent, cat. #E1531) and luciferase substrate solution (Promega, Luciferase Assay, cat. # E4550) was added to each well of the plate with Multidrop. The plate was incubated for 30 minutes at room temperature before the luminescence signal was measured with a TopCount plate-reader. • b) for the CC50 assay, a volume of 100 μL of pre-mixed CellTiter-Glo (Promega, cat. # G7572) solution is added directly to the cell culture in each well of the plate and the luminescence signal is measured with a TopCount plate-reader after 10 minutes of incubation at room temperature.
Results in table 13 are expressed by the following data: • the 50% effective concentration (EC50), i.e. the concentration that protects 50% of the cell monolayer from virus-induced cytopathic effect, and […]
(In antiviral work, replicon cells carry a viral genome segment that copies itself.)

Series [2] is described as follows: CC50 assay in Huh-7 HCV replicon cells (CellTiter-Glo). The series is classed as cell-based. The conditions noted are these: human, 3 days incubation, CellTiter-Glo luminescence. As for the experimental part: as §1, §2, §3
the 50% cytostatic concentration (CC50), i.e. the concentration that results in 50% inhibition of cell growth.

Where only a bound is given, the exact number is not on record here.

As for `COCCOc1nc(N)nc2ccc(-c3ccc(F)cc3)nc12` [Example 23, 6-(4-fluoro-phenyl)-4-(2-methoxy-ethoxy)-pyrido[3,2-d]pyrimidin-2-ylamine], the EC50 – broadly, the concentration at which the effect is half-maximal – in series [1] was below 300 nM. Besides, the cytotoxic concentration (CC50) (as a rule, the concentration at which the toxic effect on the cells reaches its halfway point) at 3 days in series [2] is above 20000 nM.
Turning to `CCCCOCCOc1nc(N)nc2ccc(-c3ccc(F)cc3)nc12` [Example 4, 2-amino-4-(2-butoxyethoxy)-6-(4-fluorophenyl)pyrido(3,2-d)pyrimidine], the EC50 in series [1] was above 1000 nM. The half-maximal cytotoxic concentration (CC50) at 3 days in series [2] was above 20000 nM.
The compound `CS(=O)(=O)CCOc1nc(N)nc2ccc(-c3ccc(F)cc3)nc12` [Example 19, 2-amino-4-[2-(methylsulfonyl)ethoxy]-6-(4-fluorophenyl)-pyrido(3,2-d) pyrimidine] had an EC50 in series [1] below 300 nM. This compound came in with a CC50 at 3 days in series [2] above 20000 nM.
`Nc1nc(OCC2CCCCO2)c2nc(-c3ccc(F)cc3)ccc2n1` (stereo not drawn) [Example 34, 2-amino-4-(tetrahydropyran-2-methoxy)-6-(4-fluorophenyl)-pyrido(3,2-d)pyrimidine]: the melting point (in general, the temperature, or range, at which the solid turns liquid) was found to be 202 °C. In series [1], this compound showed an EC50 of 300 to 1000 nM. For the same compound, in series [2], the CC50 at 3 days was 10000 to 20000 nM.
In turn, `Nc1nc(O[C@@H]2CCOC2)c2nc(-c3ccc(F)cc3)ccc2n1` [Example 17, 2-amino-4-[3(R)-tetrahydrofuranyloxy]-6-(4-fluorophenyl)-pyrido(3,2-d) pyrimidine] gave an EC50 in series [1] below 300 nM. For the same compound, the CC50 at 3 days in series [2] was above 20000 nM.
In the same order, the values of `COC(C)(C)CCOc1nc(N)nc2ccc(-c3ccc(F)cc3)nc12` [Example 12, 2-amino-4-(3-methyl-3-methoxybutoxy)-6-(4-fluorophenyl)pyrido(3,2-d) pyrimidine] are below 300 nM and above 20000 nM.
Compound `Nc1nc(OCCN2CCOCC2)c2nc(-c3ccc(F)cc3)ccc2n1` [Example 21, 6-(4-fluoro-phenyl)-4-(2-morpholin-4-yl-ethoxy)-pyrido[3,2-d]pyrimidin-2-ylamine] registered a half-maximal effective concentration (EC50) in series [1] of 300 to 1000 nM. In series [2], this compound showed a CC50 at 3 days above 20000 nM.
In the case of `Nc1nc(OCC2CCCO2)c2nc(-c3ccc(F)cc3)ccc2n1` (stereo not drawn) [Example 35, 2-amino-4-(tetrahydro-2-furanmethoxy)-6-(4-fluorophenyl)-pyrido(3,2-d)pyrimidine], the melting point is 193 °C. Further, the half-maximal effective concentration (EC50) in series [1] is 300 to 1000 nM. In addition, in series [2], the CC50 at 3 days lay within 10000 to 20000 nM.
For `CCCOCCOc1nc(N)nc2ccc(-c3ccc(F)cc3)nc12` [Example 3, 2-amino-4-(2-propoxyethoxy)-6-(4-fluorophenyl)pyrido(3,2-d)pyrimidine], the EC50 in series [1] lay within 300 to 1000 nM. The compound further had a 50% cytotoxic concentration (CC50) at 3 days in series [2] above 20000 nM.
Consider `Nc1nc(OCC2CC2)c2nc(-c3ccc(F)cc3)ccc2n1` [Example 22, 4-cyclopropylmethoxy-6-(4-fluoro-phenyl)-pyrido[3,2-d]pyrimidin-2-ylamine], for which the EC50 in series [1] was below 300 nM. In addition, the CC50 at 3 days in series [2] is above 20000 nM.
In turn, `Nc1nc(OC2CO[C@H]3OCC[C@@H]23)c2nc(-c3ccc(F)cc3)ccc2n1` (stereo partly drawn) [Example 18, 2-amino-4-[hexahydro-furo(2,3-b)furan-3-oxy]-6-(4-fluorophenyl)-pyrido(3,2-d) pyrimidine] gave an EC50 in series [1] below 300 nM. The CC50 at 3 days in series [2] is above 20000 nM.
Turning to `Nc1nc(OCC2CCCC2)c2nc(-c3ccc(F)cc3)ccc2n1` [Example 10, 2-amino-4-(cyclopentylmethoxy)-6-(4-fluorophenyl)pyrido(3,2-d)pyrimidine], the EC50 in series [1] lay within 300 to 1000 nM. In series [2], this compound registered a CC50 at 3 days above 20000 nM.
In turn, `Nc1nc(OC2CCOCC2)c2nc(-c3ccc(F)cc3)ccc2n1` [Example 33, 2-amino-4-(tetrahydro-2H-pyran-4-oxy)-6-(4-fluorophenyl)-pyrido(3,2-d)pyrimidine] came in with an EC50 in series [1] below 300 nM. Also, the CC50 at 3 days in series [2] was in the range of 10000 to 20000 nM.
In the same order, the values of `CCOCCOc1nc(N)nc2ccc(-c3ccc(F)cc3)nc12` [Example 24, 4-(2-ethoxy-ethoxy)-6-(4-fluoro-phenyl)-pyrido[3,2-d]pyrimidin-2-ylamine] are below 300 nM and above 20000 nM.
In the same order, the values of `COC[C@H](C)Oc1nc(N)nc2ccc(-c3ccc(F)cc3)nc12` [Example 37, 2-amino-4-[(S)-1-methoxy-2-propoxy]-6-(4-fluorophenyl)-pyrido(3,2-d)pyrimidine] are below 300 nM and above 20000 nM.
In series [1], `Nc1nc(OC2CCC2)c2nc(-c3ccc(F)cc3)ccc2n1` [Example 9, 2-amino-4-(cyclobutoxy)-6-(4-fluorophenyl)pyrido(3,2-d)pyrimidine] registered an EC50 below 300 nM. In series [2], the CC50 at 3 days was above 20000 nM.
In the same order, the values of `CC#CCCOc1nc(N)nc2ccc(-c3ccc(F)cc3)nc12` [Example 14, 2-amino-4-(3-pentyn-1-oxy)-6-(4-fluorophenyl)pyrido(3,2-d)pyrimidine] are above 1000 nM and above 20000 nM.
The matching figures for `Nc1nc(O[C@H]2CCOC2)c2nc(-c3ccc(F)cc3)ccc2n1` [Example 16, 2-amino-4-[3(S)-tetrahydrofuranyloxy]-6-(4-fluorophenyl)-pyrido(3,2-d)pyrimidine]: below 300 nM and above 20000 nM.
The compound `C=CC(C)(C)Oc1nc(N)nc2ccc(-c3ccc(F)cc3)nc12` [Example 13, 2-amino-4-(2-methyl-3-buten-2-oxy)-6-(4-fluorophenyl)pyrido(3,2-d)pyrimidine] yielded a half-maximal effective concentration (EC50) in series [1] above 1000 nM. Moreover, in series [2], the CC50 at 3 days is above 20000 nM.
Take `Nc1nc(OC2CCCCC2)c2nc(-c3ccc(F)cc3)ccc2n1` [Example 32, 2-amino-4-cyclohexyloxy-6-(4-fluorophenyl)-pyrido(3,2-d)pyrimidine]: the melting point is 180 °C. For the same compound, in series [1], the EC50 lay in the range of 300 to 1000 nM. The same compound had a CC50 at 3 days in series [2] below 10000 nM.
`CCC(CC)Oc1nc(N)nc2ccc(-c3ccc(F)cc3)nc12` [Example 20, 4-(1-ethyl-propoxy)-6-(4-fluoro-phenyl)-pyrido[3,2-d]pyrimidin-2-ylamine] returned a concentration giving a half-maximal response (EC50) in series [1] below 300 nM. Further, the CC50 at 3 days in series [2] was below 10000 nM.
As for `CSCCOc1nc(N)nc2ccc(-c3ccc(F)cc3)nc12` [Example 8, 2-amino-4-[2-(methylthio)ethoxy]-6-(4-fluorophenyl)pyrido(3,2-d)pyrimidine], in series [1], the EC50 was below 300 nM. In series [2], the CC50 at 3 days was above 20000 nM.
The matching figures for `Nc1nc(OC2CCCC2)c2nc(-c3ccc(F)cc3)ccc2n1` [Example 11, 2-amino-4-(cyclopentoxy)-6-(4-fluorophenyl)pyrido(3,2-d)pyrimidine]: below 300 nM and above 20000 nM.
`COC[C@@H](C)Oc1nc(N)nc2ccc(-c3ccc(F)cc3)nc12` [Example 38, 2-amino-4-[(R)-1-methoxy-2-propoxy]-6-(4-fluorophenyl)-pyrido(3,2-d)pyrimidine] returned an EC50 in series [1] below 300 nM. The 50% cytotoxic concentration (CC50) at 3 days in series [2] lay within 10000 to 20000 nM.
Consider `CC(C)OCCOc1nc(N)nc2ccc(-c3ccc(F)cc3)nc12` [Example 6, 2-amino-4-(2-isopropoxyethoxy)-6-(4-fluorophenyl)pyrido(3,2-d)pyrimidine], for which the EC50 in series [1] was below 300 nM. This compound also had a CC50 at 3 days in series [2] above 20000 nM.
As to `Nc1nc(OCC(F)F)c2nc(-c3ccc(F)cc3)ccc2n1` [Example 7, 2-amino-4-(2,2-difluoroethoxy)-6-(4-fluorophenyl)pyrido(3,2-d)pyrimidine], the half-maximal effective concentration (EC50) in series [1] was below 300 nM. In addition, the CC50 at 3 days in series [2] is above 20000 nM.
The compound `Nc1nc(OCC2CCOC2)c2nc(-c3ccc(F)cc3)ccc2n1` (stereo not drawn) [Example 36, 2-amino-4-(tetrahydro-3-furanmethoxy)-6-(4-fluorophenyl)-pyrido(3,2-d)pyrimidine] registered a melting point of 219 °C. In addition, the EC50 in series [1] was below 300 nM. Besides, the CC50 at 3 days in series [2] was in the range of 10000 to 20000 nM.
As to `CCOC(C)COc1nc(N)nc2ccc(-c3ccc(F)cc3)nc12` (stereo not drawn) [Example 5, 2-amino-4-(2-ethoxy-1-propoxy)-6-(4-fluorophenyl)pyrido(3,2-d)pyri-midine], the EC50 in series [1] was below 300 nM. For the same compound, the CC50 at 3 days in series [2] is above 20000 nM.

Values taken from patent US8637531B2, “Pyrido(3,2-d)pyridmidines useful for treating viral infections” (Gilead Sciences, Inc., priority 2006, dated 2014).
